Where two headings read alike, the source gives them in different places.
Legend:
[1] = system: P. falciparum 3D7 (chloroquine-sensitive strain); test: In vitro antiplasmodial image-based assay; format: cell-based, Plasmodium falciparum; conditions: for IC50 / inhibition at 80 µM: Plasmodium falciparum; for IC50: read-out: Pf 3D7 IC50 ± SD; for Selectivity index (fold difference) IC50(HEK293)/IC50(Pf 3D7): HEK293 versus Pf 3D7; for inhibition at 80 µM: 3D7, accurate IC50 not determinable, read-out: growth inhibition against Pf 3D7 at the assay top dose
Method: Plasmodium falciparum 3D7 were cultured in RPMI1640 (Life Technologies, Camarillo, CA, USA) supplemented with 2.5 mg/mL Albumax II, 5% AB human serum, 25 mM HEPES, and 0.37 mM hypoxanthine. Human red blood cells (RBC) (O+) were supplied by Australian Red Cross LifeBlood in accordance with agreement 23-05QLD-23. Use of human RBC for antiplasmodial experimentation was in accordance with Griffith University Human Ethics Exemption Approval #03/08/11019. Ring-stage parasites were treated with compounds following two rounds of sorbitol synchronisation, as previously described. Puromycin, chloroquine, pyrimethamine, and dihydroartemisinin were used as reference compounds. Following incubation of assay plates for 72 h at 37 °C, and 5% CO2 and 5% O2, parasites were stained with 2-(4-amidinophenyl)-1H-indole-6-carboxamidine (DAPI) and imaged using an Opera PhenixPlus™ High Content Screening System (PerkinElmer, Waltham, MA, USA). Images were analysed using the Harmony software (PerkinElmer, Waltham, MA, USA). […]
In vitro antiplasmodial image-based assay
Plasmodium falciparum 3D7 were cultured in RPMI1640 (Life Technologies, Camarillo, CA, USA) supplemented with 2.5 mg/mL Albumax II, 5% AB human serum, 25 mM HEPES, and 0.37mM hypoxanthine. Human red blood cells (RBC) (O+) were supplied by Australian Red Cross LifeBlood in accordance with agreement 23-05QLD-23. Use of human RBC for anti-plasmodial experimentation was in accordance with Griffith University Human Ethics Exemption Approval #03/08/11019. Ring stage parasites were treated with compounds following two rounds of sorbitol synchronisation, as previously described. Puromycin, chloroquine, pyrimethamine, and dihydroartemisinin were used as reference compounds. Following incubation of assay plates for 72 h at 37 °C, and 5% CO2 and 5% O2, parasites were stained with 2-(4-amidinophenyl)-1H-indole-6-carboxamidine (DAPI) and imaged using an Opera PhenixPlusTM High Content Screening System (PerkinElmer, Waltham, MA, USA).
Images were analysed using Harmony software (PerkinElmer, Waltham, MA, USA).

HEK293 cells = test: In vitro cytotoxicity assay (resazurin); format: cell-based, human; conditions: for cytotoxicity against HEK293 cells at the top concentration tested (in words): 80 µM
Method: (§1) Human embryonic kidney (HEK293) cells were maintained in DMEM (Life Technologies, Camarillo, CA, USA) containing 10% FBS (Hyclone™ ThermoFisher, Melbourne, Australia). Cytotoxicity testing was undertaken as previously described. In brief, 5 μL of test compound was added to the well of black/clear tissue culture-treated, 384-well plates containing 2000 adherent HEK293 cells/well and incubated 72 h at 37 °C in 5% CO2. […], 5 µL of 600 µM resazurin, diluted in growth media, was added. Plates were further incubated for 6 h and measured for fluorescence at 530 nm excitation and 595 nm emission. The % inhibition was calculated using 0.4% DMSO (no inhibition) and 50 μM puromycin (100% inhibition) data. Puromycin was included as a reference compound to assess assay validity. IC50 values were obtained by plotting % inhibition against log dose using GraphPad Prism v.6 (San Diego, CA, USA) nonlinear regression with a variable slope plot.
In vitro cytotoxicity assay
Human embryonic kidney (HEK293) cells were maintained in DMEM (Life
Technologies, Camarillo, CA, USA) containing 10% FBS (Hyclone™ ThermoFisher, Melbourne, Australia). Cytotoxicity testing was undertaken as previously described.
as §1, with “In brief,” for “Human embryonic kidney (HEK293) cells were maintained in DMEM (Life Technologies, Camarillo, CA, USA) containing 10% FBS (Hyclone™ ThermoFisher, Melbourne, Australia). Cytotoxicity testing was undertaken as previously described. In brief,”, “and incubated for 72 h” for “and incubated 72 h”, “slope plot. […]” for “slope plot.”

[2] = P. falciparum 3D7, ring-stage, 72 h, mean of duplicate, n = 1
[3] = Homo sapiens, HEK293, at top concentration 80 µM, 72 h, mean of duplicate, n = 1, read-out: HEK293 % inhibition ± SD
[4] = reference compounds, P. falciparum 3D7, 72 h

Question: For `CCN(CC)CCCC(C)Nc1ccnc2cc(Cl)ccc12` (centres unmarked) [CQ, chloroquine, reference compound], which IC50 ([1]; 3D7, 72 h) is on record?
Answer: The IC50 was 0.0212 ± 0.00566 µM.

Question: What does the source list for `Clc1ccc(-c2nnc3cncc(Cl)n23)cc1` [Compound 1, 5-chloro-3-(4-chlorophenyl)-[1,2,4]triazolo[4,3-a]pyrazine]?
Answer: cytotoxicity against HEK293 cells at the top concentration tested (in words) (HEK293 cells): no cytotoxicity; Selectivity index (fold difference) IC50(HEK293)/IC50(Pf 3D7) [1]: >6; IC50 [1, 2]: 12.6 ± 1.9 µM

Question: Which results are given for `Clc1ccc(-c2nnc3c(NCCc4ccccc4)nccn23)cc1` [Compound 2, 3-(4-Chlorophenyl)-N-phenethyl-[1,2,4]triazolo[4,3-a]pyrazin-8-amine]?
Answer: cytotoxicity against HEK293 cells at the top concentration tested (in words) (HEK293 cells): no cytotoxicity; inhibition at 80 µM [1]: < 100%

Question: Which “cytotoxicity against HEK293 cells at the top concentration tested (in words)” value (HEK293 cells) does the source give for `Fc1ccc(CCNc2nccn3c(-c4ccc(Cl)cc4)nnc23)cc1` [Compound 3] here?
Answer: The value was “some inhibition”.

Question: What about the inhibition at 80 µM (HEK293 cells; [3]) of the same compound?
Answer: The inhibition at 80 µM was 74 ± 7%.

Question: And the inhibition at 80 µM [1]?
Answer: Its inhibition at 80 µM is < 100%.

Question: Which inhibition at 80 µM [1] does the source give for `Clc1ccc(-c2nnc3c(NCc4ccccc4)nccn23)cc1` [Compound 4] here?
Answer: Its inhibition at 80 µM is < 100%.

Question: Which inhibition at 80 µM [1] does the source give for `Fc1ccc(CNc2nccn3c(-c4ccc(Cl)cc4)nnc23)cc1` [Compound 5] here?
Answer: Its inhibition at 80 µM is < 100%.

Question: With `CCCNc1nccn2c(-c3ccc(Cl)cc3)nnc12` [Compound 6] as the compound, how does the inhibition at 80 µM [1] read?
Answer: Its inhibition at 80 µM is < 100%.

Question: How did the inhibition at 80 µM [1] turn out when `CC(C)CCNc1nccn2c(-c3ccc(Cl)cc3)nnc12` [Compound 7, 3-(4-Chlorophenyl)-N-isopentyl-[1,2,4]triazolo[4,3-a]pyrazin-8-amine] was run?
Answer: The inhibition at 80 µM was < 100%.

Question: For `Clc1ccc(-c2nnc3c(NC4CCCCC4)nccn23)cc1` [Compound 8], which inhibition at 80 µM [1] is on record?
Answer: The inhibition at 80 µM was < 100%.

Question: How did the inhibition at 80 µM [1] turn out when `COCCNc1nccn2c(-c3ccc(Cl)cc3)nnc12` [Compound 9] was run?
Answer: Its inhibition at 80 µM is < 100%.

Question: With `CN(C)CCNc1nccn2c(-c3ccc(Cl)cc3)nnc12` [Compound 10, N^1-(3-(4-Chlorophenyl)-[1,2,4]triazolo[4,3-a]pyrazin-8-yl)-N^2,N^2-dimethylethane-1,2-diamine] as the compound, how does the “Selectivity index (fold difference) IC50(HEK293)/IC50(Pf 3D7)” value [1] read?
Answer: Its value is >3.

Question: And the IC50 [1, 2]?
Answer: Its IC50 is 23.3 ± 1.7 µM.

Question: Which “Selectivity index (fold difference) IC50(HEK293)/IC50(Pf 3D7)” value [1] does the source give for `CCN(CC)CCNc1nccn2c(-c3ccc(Cl)cc3)nnc12` [Compound 11] here?
Answer: Its value is >4.

Question: And the IC50 [1, 2]?
Answer: Its IC50 is 22 ± 2.4 µM.

Question: `CN(C)CCCNc1nccn2c(-c3ccc(Cl)cc3)nnc12` [Compound 12] was tested. Which “Selectivity index (fold difference) IC50(HEK293)/IC50(Pf 3D7)” value [1] did it give?
Answer: Its value is >4.

Question: And the IC50 [1, 2]?
Answer: Its IC50 is 22 ± 1.56 µM.

Question: `CCN(CC)CCCNc1nccn2c(-c3ccc(Cl)cc3)nnc12` [Compound 13] was tested. Which inhibition at up to 80 µM (HEK293 cells; [3]) did it give?
Answer: Its inhibition at up to 80 µM is 48 ± 5%.

Question: And the IC50 [1, 2]?
Answer: Its IC50 is 11.3 ± 0.57 µM.

Question: Which inhibition at 80 µM (HEK293 cells; [3]) does the source give for `Clc1ccc(-c2nnc3c(NCCN4CCNCC4)nccn23)cc1` [Compound 14] here?
Answer: Its inhibition at 80 µM is 84 ± 4%.

Question: And the IC50 [1, 2]?
Answer: Its IC50 is 9.9 ± 1.27 µM.

Question: What does the source list for `CC(C)(C)OC(=O)NCCCCNc1nccn2c(-c3ccc(Cl)cc3)nnc12` [Compound 15, tert-Butyl(4-((3-(4-chlorophenyl)-[1,2,4]triazolo[4,3-a]pyrazin-8 yl)amino)butyl)carbamate]?
Answer: inhibition at 80 µM (HEK293 cells; [3]): 57 ± 4%; inhibition at 80 µM [1]: < 100%

Question: For `C[C@H]1[C@@H](O)O[C@@H]2O[C@@]3(C)CC[C@H]4[C@H](C)CC[C@@H]1[C@@]24OO3` [DHA, dihydroartemisinin, reference compound], which IC50 [1, 4] is on record?
Answer: The IC50 was 0.000475 ± 9e-05 µM.

Question: How did the IC50 [1, 4] turn out when `CCc1nc(N)nc(N)c1-c1ccc(Cl)cc1` [PMA, pyrimethamine, reference compound] was run?
Answer: The IC50 was 0.0112 ± 0.00212 µM.

Question: Which IC50 (HEK293 cells; Homo sapiens, HEK293, reference compounds, 72 h, read-out: HEK293 IC50 ± SD) does the source give for `COc1ccc(C[C@H](N)C(=O)N[C@H]2[C@@H](O)[C@H](n3cnc4c(N(C)C)ncnc43)O[C@@H]2CO)cc1` [PMY, puromycin, reference compound] here?
Answer: The IC50 was 0.43 ± 0.0283 µM.

Question: What about the “Selectivity index (fold difference) IC50(HEK293)/IC50(Pf 3D7)” value [1] of the same compound?
Answer: Its value is 13.

Question: What about the IC50 [1, 4] of the same compound?
Answer: The IC50 was 0.0338 ± 0.00566 µM.
